From patent US11597920B2, “Compositions and methods for enhancing reverse transcriptase activity and/or reducing the inhibition of reverse transcriptase” (BIO-RAD LABORATORIES, INC., priority 2019, dated 2023)

Tests used:
Type in all cases: biochemical
[1] = test system: thermo-stable RT (e.g., MMLV or engineered MMLV); assay: RT-qPCR: RT tolerance to other inhibitors (ethanol, guanidine hydrochloride); conditions: 7.5% Ethanol and 50 mM Guanidinum hydrochloride
Protocol: (§1) An RT reaction buffer was formulated so that the RT reaction can be carried out after being mixed together with thermo-stable RT (e.g., MMLV or engineered MMLV) and RNA templates (e.g., Hela RNA). […] The RT reaction was completed in a T100 Thermo Cycler (Bio-Rad Laboratories Inc. Hercules, Calif.). The RT reaction protocol was as follows: 50° C. 20 min, 95° C. 1 min, and incubation at 4° C.
(§2) After RT reaction, the RT products were used for qPCR reaction using SsoAdvanced Universal SYBR Green Supermix (Bio-Rad Laboratories Inc. Hercules, Calif.). The RT product inputs in qPCR reaction ranged from 10% to 0.1% of qPCR reaction, depending on the expression abundance of target genes. Target gene primers (Table 3) at 250 nM were used. The following protocol of qPCR was used on CFC348 Thermo Cycler (Bio-Rad Laboratories Inc. Hercules, Calif.): 95° C. denaturation for 2 min, 40 cycles of 95° C. 5S denaturation, 60° C. 30S annealing/extension/read.

[2] = test system: thermo-stable RT (e.g., MMLV or engineered MMLV); assay: RT-qPCR: RT tolerance to heparin (Cq delay of RT products); conditions: for Heparin tolerance: FIG. 2
Protocol: as §1, §2

[3] = test system: thermo-stable RT (e.g., MMLV or engineered MMLV); assay: RT-qPCR: RT tolerance to formalin; conditions: for qPCR results from the RT products compared with the RT products without formalin: Human GAPDH
Protocol: (§3) An RT reaction buffer was formulated so that the RT reaction can be carried out after being mixed together with thermo-stable RT (e.g., MMLV or engineered MMLV) and RNA templates (e.g., Hela RNA). In a 20 μl RT reaction mix there is 1 u of RT enzyme, 10 u of Rnasin (Rnase inhibitor), nucleotides each at 1.5 mM (e.g., dATP, dCTP, dGTP, dTTP), random hexamer, oligo dT, or gene-specific oligo nucleotides at appropriate concentration (0.5 to 1 uM), 4% glycerol, 0.01% detergent (e.g., Tween 20), with or without RT inhibitors (e.g., Heparin, Ethanol, Guanidine Hydrochloride, Formalin, Tannic acid, etc.) or additives that improve RT reaction efficiency or sensitivity (e.g., PVSA). The RT reaction was completed in a T100 Thermo Cycler (Bio-Rad Laboratories Inc. Hercules, Calif.). The RT reaction protocol was as follows: 50° C. 20 min, 95° C. 1 min, and incubation at 4° C.
as §2, with “annealing/extension/read. After qPCR reaction, Cq values from RT products with and without inhibitors were compared, and usually Cq values were delayed (bigger values) when inhibitors were present. The larger the Cq value relative to no inhibitor RT products, the more inhibition of RT reaction observed.” for “annealing/extension/read.”
(§4) Human GAPDH target gene was detected in the qPCR reaction.

[4] = test system: thermo-stable RT (e.g., MMLV or engineered MMLV); assay: RT-qPCR: RT tolerance to tannic acid
Protocol: as §3
After RT reaction, the RT products were used for qPCR reaction using SsoAdvanced Universal SYBR Green Supermix (Bio-Rad Laboratories Inc. Hercules, Calif.). The RT product inputs in qPCR reaction ranged from 10% to 0.1% of qPCR reaction, depending on the expression abundance of target genes. Target gene primers (Table 3) at 250 nM were used. […] 30S annealing/extension/read. […]
as §4

N.N.O=S(=O)(O)O [(NH4)2SO4]
tolerance to other inhibitors [1]: compromises Ethanol and GC tolerance | Heparin tolerance [2]: also improves Heparin tolerance though not as effect as K-Glu

C=O [Formalin]
qPCR results from the RT products compared with the RT products without formalin ([3]; Formalin 0.125% in RT reaction): significantly delayed | Cq delay ([3]; formalin in RT reaction, without His-HCl): about 4

Cl.N[C@@H](Cc1c[nH]cn1)C(=O)O.O [His-HCl, histidine hydrochloride monohydrate]
qPCR results from the RT products compared with the RT products without formalin ([3]; Formalin 0.125% plus 15 to 20 mM His-HCl): did not show a lot delay | Cq delay ([3]; formalin with 15 to 20 mM His-HCl present): less than 1

N[C@@H](CCC(=O)[O-])C(=O)[O-].[K+].[K+] [K-Glu, Potassium Glutamate]
tolerance to other inhibitors [1]: without compromising tolerance | Heparin tolerance [2]: improves Heparin tolerance | Cq delay ([2]; Heparin 0.003 U/μl with 100 mM K-Glu present): less than 1 | qPCR from the RT products compared with the RT products without heparin ([2]; Heparin 0.0034 u/μl plus 100 mM potassium Glutamate in RT reaction): did not show much delay

O=C(OC[C@H]1O[C@@H](OC(=O)c2cc(O)c(O)c(OC(=O)c3cc(O)c(O)c(O)c3)c2)[C@H](OC(=O)c2cc(O)c(O)c(OC(=O)c3cc(O)c(O)c(O)c3)c2)[C@@H](OC(=O)c2cc(O)c(O)c(OC(=O)c3cc(O)c(O)c(O)c3)c2)[C@@H]1OC(=O)c1cc(O)c(O)c(OC(=O)c2cc(O)c(O)c(O)c2)c1)c1cc(O)c(O)c(OC(=O)c2cc(O)c(O)c(O)c2)c1 [Tannic acid]
Cq delay ([4]; Tannic acid 0.1 μg/μl in the RT reaction, no Poloxamer): over 13 | qPCR results from the RT products compared with the RT products without tannic acid ([4]; tannic acid 0.1 μg/μl, Human GAPDH): greatly delayed

N[C@@H](Cc1c[nH]cn1)C(=O)O [histidine]
efficiency of the amplification reaction as compared to a control lacking histidine ([3]; reaction mixtures containing formalin): improved the efficiency

Heparin
Cq delay ([2]; Heparin 0.003 U/μl in the RT reaction, no K-Glu): over 7 | qPCR from the RT products compared with the RT products without heparin ([2]; Heparin 0.0034 u/μl in RT reaction, GAPDH and 18S): greatly delayed
